In data set [1] the test system is Caco-2 human adenocarcinoma cells. In words: Absorption of reduced or oxidised vitamin K2-(MK7) on cell monolayer of Caco-2 cells in vitro. In kind it is in vitro ADME. As to conditions: for amount of vitamin internalized by the cell layer (μg of vitamin per g of homogenate): 100 μM vitamin applied to apical compartment, 1% ethanol. The method, then:
Caco-2 human adenocarcinoma cells were cultured on a permeable insert inserted in the well of a microplate to form a confluent monolayer with the barrier function between an apical and a basolateral compartment. The perfect integrity of the monolayer was determined by testing for the absence of passage by lucifer yellow, a compound with low permeability. Samples of vitamin K2-(MK7), alternatively in the reduced form (menaquinol) or the oxidized form (menaquinone), were dissolved in ethanol and applied to the apical compartment, the 1% ethanol solution being added to the incubation buffer. The final solution in the incubation well was fixed at 100 μM of vitamin.
At the end of the incubation period the cell layer was removed from the insert and homogenized, and the homogenate was centrifuged. The amount of vitamin present in the supernatant was determined by HPLC. The centrifugation pellet was then resuspended in 1 ml of water, and 1.5 ml of isopropanol and 2.5 ml of hexane were added to the suspension. After stirring, the organic phase formed was analyzed, again by HPLC, for the concentration of vitamin K2 (MK7). The total of the two values was used to calculate the amount of vitamin internalized by the cell layer.

Data set [2] in a line: Stability tests of solid forms of reduced vitamin K2-(MK7) (oxidation of the reduced form over storage time). In kind it is physicochemical. Particulars: for percentage of the initial value of the reduced form: packaging Alu/vacuum; for Reduced (t/t0 %): percentage of the initial value of the reduced form.

As to `CC(C)=CCC/C(C)=C/CC/C(C)=C/CC/C(C)=C/CC/C(C)=C/CC/C(C)=C/CC/C(C)=C/CC1=C(C)C(=O)c2ccccc2C1=O` [Oxidised vitamin, menaquinone 7, reference compound], the “amount of vitamin internalized by the cell layer (μg of vitamin per g of homogenate)” value was determined as 0.6 μg/g hom in data set [1] (mean of wells 1-4); 0.4 μg/g hom in data set [1] (well 1); 0.5 μg/g hom in data set [1] (well 2); 0.6 μg/g hom in data set [1] (well 3); 0.7 μg/g hom in data set [1] (well 4).

Consider `CC(C)=CCC/C(C)=C/CC/C(C)=C/CC/C(C)=C/CC/C(C)=C/CC/C(C)=C/CC/C(C)=C/Cc1c(C)c(O)c2ccccc2c1O` [menaquinol 7], for which the “percentage of the initial value of the reduced form” value in data set [2] (T = 0) worked out at 100%; in data set [2] (T = 1 month), 95.4%; in data set [2] (T = 2 months), 98.9%; in data set [2] (T = 3 months) it was 97.9%. For the same molecule, the “% vitamin oxidised” value is on record as 18.41% in data set [2] (Time 0 days); 23.67% in data set [2] (Time 3 days); 36.69% in data set [2] (Time 6 days); 51.48% in data set [2] (Time 10 days); 52.67% in data set [2] (Time 11 days); 61.09% in data set [2] (Time 12 days). The “% vitamin reduced” value came out at 81.58% in data set [2] (Time 0 days); 76.24% in data set [2] (Time 3 days); 63.16% in data set [2] (Time 6 days); 48.27% in data set [2] (Time 10 days); 47.04% in data set [2] (Time 11 days); 38.44% in data set [2] (Time 12 days).

For `CC(C)=CCC/C(C)=C/CC/C(C)=C/CC/C(C)=C/CC/C(C)=C/CC/C(C)=C/CC/C(C)=C/Cc1c(C)c(O)c2ccccc2c1O` [menaquinol 7, reference compound], the “Reduced (t/t0 %)” value in data set [2] (Time 0 days) came out at 100%; in data set [2] (Time 3 days), 4%.

Consider `CC(C)=CCC/C(C)=C/CC/C(C)=C/CC/C(C)=C/CC/C(C)=C/CC/C(C)=C/CC/C(C)=C/Cc1c(C)c(O)c2ccccc2c1O` [Reduced vitamin, menaquinol 7], for which the “amount of vitamin internalized by the cell layer (μg of vitamin per g of homogenate)” value in data set [1] (mean of wells 1-4) came out at 1.1 μg/g hom; in data set [1] (well 1), 0.8 μg/g hom; in data set [1] (well 2), 1.6 μg/g hom; in data set [1] (well 3), 1.0 μg/g hom; in data set [1] (well 4), 0.8 μg/g hom. In addition, the “uptake by Caco-2 cell layer compared with the oxidized form” value in data set [1] (result in words, 100 μM vitamin) was “slightly but significantly higher uptake”.

For the origin of these results see patent US10563270B2, “Solid forms of menaquinols” (Gnosis S.p.A., priority 2015, dated 2020).
